From the supplement of paper PMC9663587

How the values were obtained:
Flavopiridol [1] = compound: T1, CN1CC[C@H](c2c(O)cc(O)c3c(=O)cc(-c4ccccc4Cl)oc23)[C@H](O)C1 [Flavopiridol]; assay: increase in dead-cell fraction, 72 h; higher = more death;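 note: breast cancer cell lines in 384-well plates, stained with Hoechst plus LIVE/DEAD far red dye and imaged, cells above an LDR intensity threshold counted dead, Hoechst-negative corpses included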
[2] = compound: CC(=O)c1c(C)c2cnc(Nc3ccc(N4CCNCC4)cn3)nc2n(C2CCCC2)c1=O; assay: as above
[3] = compound: CCN1CCN(Cc2ccc(Nc3ncc(F)c(-c4cc(F)c5nc(C)n(C(C)C)c5c4)n3)nc2)CC1; assay: as above
LEE011/Ribociclib [4] = compound: T2, CN(C)C(=O)c1cc2cnc(Nc3ccc(N4CCNCC4)cn3)nc2n1C1CCCC1 [LEE011/Ribociclib]; assay: as above
Flavopiridol [5] = compound: T1, Flavopiridol; assay: GR value, 72 h; higher = faster growth (1 = untreated, <0 = killing);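 note: breast cancer and non-malignant breast epithelial lines, nine half-log doses, viable cells counted by Hoechst and LIVE/DEAD dye imaging versus time-zero plates and DMSO controls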
[6] = compound: CC(=O)c1c(C)c2cnc(Nc3ccc(N4CCNCC4)cn3)nc2n(C2CCCC2)c1=O; assay: as above
[7] = compound: CCN1CCN(Cc2ccc(Nc3ncc(F)c(-c4cc(F)c5nc(C)n(C(C)C)c5c4)n3)nc2)CC1; assay: as above
BSJ-03-123 = compound: CC(=O)c1c(C)c2cnc(Nc3ccc(N4CCN(CCOCCOCCOCCNC(=O)COc5cccc6c5C(=O)N(C5CCC(=O)NC5=O)C6=O)CC4)cn3)nc2n(C2CCCC2)c1=O [BSJ-03-123]; assay: as above
[8] = compound: CCc1cnn2c(NCc3ccc[n+]([O-])c3)cc(N3CCCC[C@H]3CCO)nc12; assay: as above
LEE011/Ribociclib [9] = compound: T2, LEE011/Ribociclib; assay: as above
Neratinib/HKI272 = compound: CCOc1cc2ncc(C#N)c(Nc3ccc(OCc4ccccn4)c(Cl)c3)c2cc1NC(=O)/C=C/CN(C)C [Neratinib/HKI272]; assay: as above
THZ1 = compound: CN(C)C/C=C/C(=O)Nc1ccc(C(=O)Nc2cccc(Nc3ncc(Cl)c(-c4c[nH]c5ccccc45)n3)c2)cc1 [THZ1]; assay: as above

Cell Line: SUM52PE
- increase in dead-cell fraction (Flavopiridol [1]; 0.0001 µM): 0.0019
- increase in dead-cell fraction (Flavopiridol [1]; 0.0003162 µM): -0.0012
- increase in dead-cell fraction (Flavopiridol [1]; 0.001 µM): 0.0042
- increase in dead-cell fraction (Flavopiridol [1]; 0.003162 µM): 0.0019
- increase in dead-cell fraction (Flavopiridol [1]; 0.01 µM): -0.0015
- increase in dead-cell fraction (Flavopiridol [1]; 0.03162 µM): 0
- increase in dead-cell fraction (Flavopiridol [1]; 0.1 µM): 0.0003
- increase in dead-cell fraction (Flavopiridol [1]; 0.3162 µM): 0.0166
- increase in dead-cell fraction (Flavopiridol [1]; 1 µM): 0.392
- increase in dead-cell fraction ([2]; 0.0003162 µM): 0.0036
- increase in dead-cell fraction ([2]; 0.001 µM): -0.0018
- increase in dead-cell fraction ([2]; 0.003162 µM): -0.0008
- increase in dead-cell fraction ([2]; 0.01 µM): 0.0002
- increase in dead-cell fraction ([2]; 0.03162 µM): -0.0011
- increase in dead-cell fraction ([2]; 0.1 µM): 0.0033
- increase in dead-cell fraction ([2]; 0.3162 µM): 0.0047
- increase in dead-cell fraction ([2]; 1 µM): 0.006
- increase in dead-cell fraction ([2]; 3.162 µM): 0.0091
- increase in dead-cell fraction ([3]; 0.001 µM): -0.0031
- increase in dead-cell fraction ([3]; 0.003162 µM): -0.0003
- increase in dead-cell fraction ([3]; 0.01 µM): 0.0005
- increase in dead-cell fraction ([3]; 0.03162 µM): 0.0052
- increase in dead-cell fraction ([3]; 0.1 µM): 0.0077
- increase in dead-cell fraction ([3]; 0.3162 µM): 0.0061
- increase in dead-cell fraction ([3]; 1 µM): 0.0107
- increase in dead-cell fraction ([3]; 3.162 µM): 0.0058
- increase in dead-cell fraction ([3]; 10 µM): 0.0135
- increase in dead-cell fraction (LEE011/Ribociclib [4]; 0.001 µM): 0.0005
- increase in dead-cell fraction (LEE011/Ribociclib [4]; 0.003162 µM): 0.0031
- increase in dead-cell fraction (LEE011/Ribociclib [4]; 0.01 µM): -0.0001
- increase in dead-cell fraction (LEE011/Ribociclib [4]; 0.03162 µM): 0.0002
- increase in dead-cell fraction (LEE011/Ribociclib [4]; 0.1 µM): -0.0001
- increase in dead-cell fraction (LEE011/Ribociclib [4]; 0.3162 µM): 0.0042
- increase in dead-cell fraction (LEE011/Ribociclib [4]; 1 µM): 0.0047
- increase in dead-cell fraction (LEE011/Ribociclib [4]; 3.162 µM): 0.0047
- increase in dead-cell fraction (LEE011/Ribociclib [4]; 10 µM): 0.0071
- GR value (Flavopiridol [5]; 0.0001 µM): 1.07 GR
- GR value (Flavopiridol [5]; 0.0003162 µM): 1.06 GR
- GR value (Flavopiridol [5]; 0.001 µM): 0.942 GR
- GR value (Flavopiridol [5]; 0.003162 µM): 0.915 GR
- GR value (Flavopiridol [5]; 0.01 µM): 1.02 GR
- GR value (Flavopiridol [5]; 0.03162 µM): 0.945 GR
- GR value (Flavopiridol [5]; 0.1 µM): 0.8 GR
- GR value (Flavopiridol [5]; 0.3162 µM): 0.357 GR
- GR value (Flavopiridol [5]; 1 µM): -0.26 GR
- GR value ([6]; 0.0003162 µM): 1.1 GR
- GR value ([6]; 0.001 µM): 1.06 GR
- GR value ([6]; 0.003162 µM): 1.01 GR
- GR value ([6]; 0.01 µM): 0.97 GR
- GR value ([6]; 0.03162 µM): 0.863 GR
- GR value ([6]; 0.1 µM): 0.695 GR
- GR value ([6]; 0.3162 µM): 0.607 GR
- GR value ([6]; 1 µM): 0.475 GR
- GR value ([6]; 3.162 µM): 0.348 GR
- GR value ([7]; 0.001 µM): 0.991 GR
- GR value ([7]; 0.003162 µM): 0.962 GR
- GR value ([7]; 0.01 µM): 0.86 GR
- GR value ([7]; 0.03162 µM): 0.766 GR
- GR value ([7]; 0.1 µM): 0.619 GR
- GR value ([7]; 0.3162 µM): 0.497 GR
- GR value ([7]; 1 µM): 0.459 GR
- GR value ([7]; 3.162 µM): 0.365 GR
- GR value ([7]; 10 µM): 0.289 GR
- GR value (BSJ-03-123; 0.001 µM): 1.02 GR
- GR value (BSJ-03-123; 0.003162 µM): 0.851 GR
- GR value (BSJ-03-123; 0.01 µM): 0.868 GR
- GR value (BSJ-03-123; 0.03162 µM): 0.883 GR
- GR value (BSJ-03-123; 0.1 µM): 0.862 GR
- GR value (BSJ-03-123; 0.3162 µM): 0.78 GR
- GR value (BSJ-03-123; 1 µM): 0.657 GR
- GR value (BSJ-03-123; 3.162 µM): 0.634 GR
- GR value (BSJ-03-123; 10 µM): 0.228 GR
- GR value ([8]; 0.0001 µM): 1.08 GR
- GR value ([8]; 0.0003162 µM): 1.14 GR
- GR value ([8]; 0.001 µM): 1.01 GR
- GR value ([8]; 0.003162 µM): 1.05 GR
- GR value ([8]; 0.01 µM): 0.925 GR
- GR value ([8]; 0.03162 µM): -0.0619 GR
- GR value ([8]; 0.1 µM): -0.245 GR
- GR value ([8]; 0.3162 µM): -0.322 GR
- GR value ([8]; 1 µM): -0.175 GR
- GR value (LEE011/Ribociclib [9]; 0.001 µM): 0.991 GR
- GR value (LEE011/Ribociclib [9]; 0.003162 µM): 0.857 GR
- GR value (LEE011/Ribociclib [9]; 0.01 µM): 0.861 GR
- GR value (LEE011/Ribociclib [9]; 0.03162 µM): 0.86 GR
- GR value (LEE011/Ribociclib [9]; 0.1 µM): 0.822 GR
- GR value (LEE011/Ribociclib [9]; 0.3162 µM): 0.797 GR
- GR value (LEE011/Ribociclib [9]; 1 µM): 0.69 GR
- GR value (LEE011/Ribociclib [9]; 3.162 µM): 0.681 GR
- GR value (LEE011/Ribociclib [9]; 10 µM): 0.54 GR
- GR value (Neratinib/HKI272; 0.0003162 µM): 1.01 GR
- GR value (Neratinib/HKI272; 0.001 µM): 0.991 GR
- GR value (Neratinib/HKI272; 0.003162 µM): 1.01 GR
- GR value (Neratinib/HKI272; 0.01 µM): 1.06 GR
- GR value (Neratinib/HKI272; 0.03162 µM): 1.01 GR
- GR value (Neratinib/HKI272; 0.1 µM): 1.01 GR
- GR value (Neratinib/HKI272; 0.3162 µM): 0.959 GR
- GR value (Neratinib/HKI272; 1 µM): 0.876 GR
- GR value (Neratinib/HKI272; 3.162 µM): 0.503 GR
- GR value (THZ1; 0.0001 µM): 1.03 GR
- GR value (THZ1; 0.0003162 µM): 1.01 GR
- GR value (THZ1; 0.001 µM): 1.04 GR
- GR value (THZ1; 0.003162 µM): 0.8 GR
- GR value (THZ1; 0.01 µM): 0.733 GR
- GR value (THZ1; 0.03162 µM): 0.0891 GR
- GR value (THZ1; 0.1 µM): -0.0885 GR
- GR value (THZ1; 0.3162 µM): -0.151 GR
- GR value (THZ1; 1 µM): -0.403 GR
